Results published in US9850283B2, “Macrocyclic inhibitors of the PD-1/PD-L1 and CD80(B7-1)/PD-L1 protein/protein interactions” (BRISTOL-MYERS SQUIBB COMPANY, priority 2013, dated 2017).
pIC50: −log10 of the molar value. Where two headings read alike, the source gives them in different places. Starred links: 1 amine or outer side, 2 acyl side, 3 side chain; linkers in the order of their positions; H or OH if unused. Positions of bridges follow the written chain, without caps; N, C: chain ends. Non-standard residues stand in square brackets, D forms with d. Residues, ends and D or L forms follow the SMILES beside them. ξ: configuration not given here. Phe(4-SO2NH2) = N[C@@H](Cc1ccc(S(N)(=O)=O)cc1)C(=O)O; X17 = O=C([C@@H]1C[C@@H](c2nn[nH]n2)CN1[*:1])[*:2]; Pro(trans-4-F) = O=C(O)[C@@H]1C[C@@H](F)CN1; ξTrp(5-F) = NC(Cc1c[nH]c2ccc(F)cc12)C(=O)O; 2Nal = N[C@@H](Cc1ccc2ccccc2c1)C(=O)O; Bta = N[C@@H](Cc1csc2ccccc12)C(=O)O; Hyp = O=C(O)[C@@H]1C[C@@H](O)CN1; NMeF = CN[C@@H](Cc1ccccc1)C(=O)O; 2Pal = N[C@@H](Cc1ccccn1)C(=O)O; NMeNle = CCCC[C@H](NC)C(=O)O; hSer = N[C@@H](CCO)C(=O)O; NMeA = CN[C@@H](C)C(=O)O; Orn = NCCC[C@H](N)C(=O)O; Dab = NCC[C@H](N)C(=O)O; Dap = NC[C@H](N)C(=O)O; ξC = NC(CS)C(=O)O; Sar = CNCC(=O)O

Assays:
Human PD-L1/PD-1 = molecular target: T1, Human PD-L1/PD-1 (Homo sapiens, UniProt Q9NZQ7); assay: HTRF PD-1-Ig/PD-L1-His binding assay (human PD-L1); settings: cluster symbol; read-out: HTRF IC50 cluster
T1 construct: made in house; host or cells: HEK293T
T1 sequence (Q9NZQ7 with tags, fused parts or gaps): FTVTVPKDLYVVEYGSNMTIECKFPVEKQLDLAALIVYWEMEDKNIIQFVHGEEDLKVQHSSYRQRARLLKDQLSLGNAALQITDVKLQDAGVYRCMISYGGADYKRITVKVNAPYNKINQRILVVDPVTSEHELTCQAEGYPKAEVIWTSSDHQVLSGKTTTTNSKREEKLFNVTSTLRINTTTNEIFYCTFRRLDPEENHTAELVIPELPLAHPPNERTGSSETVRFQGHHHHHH
Summary of the method: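 Ig- and His-fused extracellular PD-1/PD-L1 binding in BSA/Tween-20 dPBS. HTRF with Eu anti-Ig (1 nM final) and APC anti-His (20 nM final).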

[1] = molecular target: T2, LK35.2-hPD-L1 cells / PE-labeled PD-1-Ig (Homo sapiens, UniProt Q9NZQ7); assay: LK35.2-hPD-L1 cell binding high-content screening assay; format: cell-based; settings: cluster symbol, read-out: CBA IC50 cluster
T2 construct: expressed in transfected cells; host or cells: LK35.2 mouse B cell line
T2 sequence (Q9NZQ7 19-290): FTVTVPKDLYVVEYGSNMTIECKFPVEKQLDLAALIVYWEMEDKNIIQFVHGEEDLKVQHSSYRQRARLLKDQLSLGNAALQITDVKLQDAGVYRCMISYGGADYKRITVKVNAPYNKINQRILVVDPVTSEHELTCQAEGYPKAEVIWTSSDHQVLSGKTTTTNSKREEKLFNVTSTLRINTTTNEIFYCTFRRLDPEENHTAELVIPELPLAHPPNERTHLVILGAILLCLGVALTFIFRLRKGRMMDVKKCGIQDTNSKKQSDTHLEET
Summary of the method: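 Binding of PE-conjugated human PD-1-Ig (1 nM final) to human PD-L1 stably expressed on a mouse B-cell line (LK35.2) was measured by high-content imaging after washes. Compound and labeled PD-1-Ig were co-incubated 1 h at 37 °C with cells in RPMI/10% FCS.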

[2] = cell line of CBA not given (LK35.2-hPD-L1 or 293T-hPD-L1)
[3] = cell binding assay, cell line not given

| Structure (SMILES) | pIC50 (Human PD-L1/PD-1) | pIC50 [1, 2] | pIC50 [1, 3] |
| --- | --- | --- | --- |
| CCCC[C@H]1C(=O)N(C)[C@@H](CCCC)C(=O)N[C@@H](CCCNC(=N)N)C(=O)N[C@H](C(=O)NCC(N)=O)CSCC(=O)N[C@@H](Cc2ccccc2)C(=O)N(C)[C@@H](C)C(=O)N[C@@H](CC(N)=O)C(=O)N2CCC[C@H]2C(=O)N[C@@H](Cc2cnc[nH]2)C(=O)N[C@@H](CC(C)C)C(=O)N(C)CC(=O)N[C@@H](Cc2c[nH]c3ccccc23)C(=O)N[C@@H](CO)C(=O)NC(Cc2c[nH]c3ccc(F)cc23)C(=O)N1C (some centres unmarked) [Example 1039] ({CH2CO}-F[NMeA]NPHL[Sar]WS[ξTrp(5-F)][NMeNle][NMeNle]RCG-NH2; thioether N-14) | < 7.52 | 7.14 to 8.32 | – |
| CCCC[C@H]1C(=O)N(C)[C@@H](CCCC)C(=O)N[C@@H](CCCNC(=N)N)C(=O)N[C@H](C(=O)NCC(N)=O)CSCC(=O)N[C@@H](Cc2ccc(S(N)(=O)=O)cc2)C(=O)N(C)[C@@H](C)C(=O)N[C@@H](CC(N)=O)C(=O)N2CCC[C@H]2C(=O)N[C@@H](Cc2cnc[nH]2)C(=O)N[C@@H](CC(C)C)C(=O)N(C)CC(=O)N[C@@H](Cc2c[nH]c3ccccc23)C(=O)N[C@@H](CO)C(=O)N[C@@H](Cc2c[nH]c3ccccc23)C(=O)N1C [Example 1093] ({CH2CO}-[Phe(4-SO2NH2)][NMeA]NPHL[Sar]WSW[NMeNle][NMeNle]RCG-NH2; thioether N-14) | < 7.52 | < 7.13 | – |
| CCCC[C@H]1C(=O)N(C)[C@@H](CCCC)C(=O)N[C@@H](CCCNC(=N)N)C(=O)NC(C(=O)NCC(N)=O)CSCC(=O)N[C@@H](Cc2ccc(O)cc2)C(=O)N(C)[C@@H](C)C(=O)N[C@@H](CC(N)=O)C(=O)N2CCC[C@H]2C(=O)N[C@@H](Cc2cnc[nH]2)C(=O)N[C@@H](CC(C)C)C(=O)N2CCC[C@H]2C(=O)N[C@@H](Cc2c[nH]c3ccccc23)C(=O)N[C@@H](CCO)C(=O)N[C@@H](Cc2csc3ccccc23)C(=O)N1C (some centres unmarked) [Example 9052] ({CH2CO}-Y[NMeA]NPHLPW[hSer][Bta][NMeNle][NMeNle]R[ξC]G-NH2; thioether N-14) | 8.17 to 9.41 | – | 8.33 to 9.80 |
| CCCC[C@H]1C(=O)N(C)CC(=O)N[C@@H](CC(=O)O)C(=O)N[C@@H](C(C)C)C(=O)N(C)[C@@H](Cc2cnc[nH]2)C(=O)N[C@@H](Cc2ccc(O)cc2)C(=O)N(C)CC(=O)N[C@@H](Cc2c[nH]c3ccccc23)C(=O)N[C@@H](Cc2ccc(O)cc2)C(=O)N[C@@H](CC(C)C)C(=O)N[C@H](C(=O)NCC(N)=O)CSCC(=O)N[C@@H](Cc2ccccc2)C(=O)N(C)[C@@H](Cc2ccccc2)C(=O)N1C [Example 3057] (HELM PEPTIDE1{[O=C(C[*:3])[*:2]].F.[meF].[CCCC[C@@H](C(=O)[*:2])N(C)[*:1]].[Sar].D.V.[meH].Y.[Sar].W.Y.L.C.G.[am]}$PEPTIDE1,PEPTIDE1,1:R3-14:R3$$$V2.0) | < 7.52 | < 7.13 | – |
| CCCC[C@H]1C(=O)N(C)[C@@H](CCCC)C(=O)N[C@@H](CCCN)C(=O)N[C@H](C(=O)NCC(N)=O)CSCC(=O)N[C@@H](Cc2ccc(O)cc2)C(=O)N(C)[C@@H](C)C(=O)N[C@@H](CC(N)=O)C(=O)N2CCC[C@H]2C(=O)N[C@@H](CN)C(=O)N[C@@H](CC(C)C)C(=O)N2C[C@H](F)C[C@H]2C(=O)N[C@@H](Cc2c[nH]c3ccccc23)C(=O)N[C@@H](CO)C(=O)N[C@@H](Cc2c[nH]c3ccccc23)C(=O)N1C [Example 13003] ({CH2CO}-Y[NMeA]NP[Dap]L[Pro(trans-4-F)]WSW[NMeNle][NMeNle][Orn]CG-NH2; thioether N-14) | 8.17 to 9.41 | – | 8.33 to 9.80 |
| CCCC[C@H]1C(=O)N(C)CC(=O)N[C@@H](CC(=O)O)C(=O)N[C@@H](C(C)C)C(=O)N(C)[C@@H](Cc2ccccc2)C(=O)N[C@@H](Cc2ccc(O)cc2)C(=O)N(C)CC(=O)N[C@@H](Cc2c[nH]c3ccccc23)C(=O)N[C@@H](Cc2ccc3ccccc3c2)C(=O)N[C@@H](CC(C)C)C(=O)N[C@H](C(=O)NCC(N)=O)CSCC(=O)N[C@@H](Cc2ccccc2)C(=O)N(C)[C@@H](Cc2ccccc2)C(=O)N1C [Example 3538] ({CH2CO}-F[NMeF][NMeNle][Sar]DV[NMeF]Y[Sar]W[2Nal]LCG-NH2; thioether N-13) | < 7.52 | – | < 7.13 |
| CCCC[C@H]1C(=O)N(C)CC(=O)N[C@@H](CCCNC(=N)N)C(=O)N[C@@H](C(C)C)C(=O)N(C)[C@@H](Cc2ccccc2)C(=O)N[C@@H](Cc2ccc(O)cc2)C(=O)N(C)CC(=O)N[C@@H](Cc2c[nH]c3ccccc23)C(=O)N[C@@H](Cc2ccc(O)cc2)C(=O)N[C@@H](CC(C)C)C(=O)N[C@H](C(=O)NCC(N)=O)CSCC(=O)N[C@@H](Cc2ccccc2)C(=O)N(C)[C@@H](Cc2ccccc2)C(=O)N1C [Example 3501] (HELM PEPTIDE1{[O=C(C[*:3])[*:2]].F.[meF].[CCCC[C@@H](C(=O)[*:2])N(C)[*:1]].[Sar].R.V.[meF].Y.[Sar].W.Y.L.C.G.[am]}$PEPTIDE1,PEPTIDE1,1:R3-14:R3$$$V2.0) | 7.52 to 8.17 | – | 7.14 to 8.32 |
| CCCC[C@H]1C(=O)N(C)[C@@H](CCCC)C(=O)N[C@@H](CCN)C(=O)N[C@H](C(=O)NCC(N)=O)CSCC(=O)N[C@@H](Cc2ccc(O)cc2)C(=O)N(C)[C@@H](C)C(=O)N[C@@H](CC(N)=O)C(=O)N2CCC[C@H]2C(=O)N[C@@H](Cc2c[nH]cn2)C(=O)N[C@@H](CCC(=O)O)C(=O)N2C[C@H](c3nn[nH]n3)C[C@H]2C(=O)N[C@@H](Cc2c[nH]c3ccccc23)C(=O)N[C@@H](CCN)C(=O)N[C@@H](Cc2c[nH]c3ccccc23)C(=O)N1C [Example 13004] ({CH2CO}-Y[NMeA]NPHE[X17]W[Dab]W[NMeNle][NMeNle][Dab]CG-NH2; thioether N-14) | 8.17 to 9.41 | – | 8.33 to 9.80 |
| CCCC[C@H]1C(=O)N(C)[C@@H](CCCC)C(=O)N[C@@H](CCCNC(=N)N)C(=O)NC(C(=O)NCC(N)=O)CSCC(=O)N[C@@H](Cc2ccc(O)cc2)C(=O)N(C)[C@@H](C)C(=O)N[C@@H](CC(N)=O)C(=O)N2CCC[C@H]2C(=O)N[C@@H](CO)C(=O)N[C@@H](CC(C)C)C(=O)N2CCC[C@H]2C(=O)N[C@@H](Cc2c[nH]c3ccccc23)C(=O)N[C@@H](CO)C(=O)N[C@@H](Cc2c[nH]c3ccccc23)C(=O)N1C (some centres unmarked) [Example 9073] ({CH2CO}-Y[NMeA]NPSLPWSW[NMeNle][NMeNle]R[ξC]G-NH2; thioether N-14) | 8.17 to 9.41 | – | 8.33 to 9.80 |
| CCCC[C@H]1C(=O)N(C)CC(=O)N[C@@H](CCN)C(=O)N[C@@H](C(C)C)C(=O)N(C)[C@@H](Cc2ccccc2)C(=O)N[C@@H](Cc2ccc(O)cc2)C(=O)N(C)CC(=O)N[C@@H](Cc2c[nH]c3ccccc23)C(=O)N[C@@H](Cc2ccc(O)cc2)C(=O)N[C@@H](CC(C)C)C(=O)N[C@H](C(=O)NCC(N)=O)CSCC(=O)N[C@@H](Cc2ccccc2)C(=O)N(C)[C@@H](Cc2ccccc2)C(=O)N1C [Example 3153] (HELM PEPTIDE1{[O=C(C[*:3])[*:2]].F.[meF].[CCCC[C@@H](C(=O)[*:2])N(C)[*:1]].[Sar].[Dab].V.[meF].Y.[Sar].W.Y.L.C.G.[am]}$PEPTIDE1,PEPTIDE1,1:R3-14:R3$$$V2.0) | 7.52 to 8.17 | 7.14 to 8.32 | – |
| CCCC[C@H]1C(=O)N[C@@H](CCCNC(=N)N)C(=O)N[C@H](C(=O)NCC(N)=O)CSCC(=O)N[C@@H](Cc2ccccc2)C(=O)N(C)[C@@H](C)C(=O)N[C@@H](CC(N)=O)C(=O)N2CCC[C@H]2C(=O)N[C@@H](Cc2cnc[nH]2)C(=O)N[C@@H](CC(C)C)C(=O)N(C)CC(=O)N[C@@H](Cc2c[nH]c3ccccc23)C(=O)N[C@@H](CO)C(=O)N[C@@H](Cc2c[nH]c3ccccc23)C(=O)N2CCC[C@H]2C(=O)N1C [Example 1005] (HELM PEPTIDE1{[O=C(C[*:3])[*:2]].F.[meA].N.P.H.L.[Sar].W.S.W.P.[CCCC[C@@H](C(=O)[*:2])N(C)[*:1]].R.C.G.[am]}$PEPTIDE1,PEPTIDE1,1:R3-15:R3$$$V2.0) | < 7.52 | < 7.13 | – |
| CCCC[C@H]1C(=O)N(C)[C@@H](CCCC)C(=O)N[C@@H](CCN)C(=O)N[C@H](C(=O)NCC(N)=O)CSCC(=O)N[C@@H](Cc2ccc(O)cc2)C(=O)N(C)[C@@H](C)C(=O)N[C@@H](CC(N)=O)C(=O)N2CCC[C@H]2C(=O)N[C@@H](Cc2cnc[nH]2)C(=O)N[C@@H](CCC(=O)O)C(=O)N2C[C@H](O)C[C@H]2C(=O)N[C@@H](Cc2c[nH]c3ccccc23)C(=O)N[C@@H](CO)C(=O)N[C@@H](Cc2c[nH]c3ccccc23)C(=O)N1C [Example 5031] ({CH2CO}-Y[NMeA]NPHE[Hyp]WSW[NMeNle][NMeNle][Dab]CG-NH2; thioether N-14) | 8.17 to 9.41 | – | 8.33 to 9.80 |
| CCCC[C@H]1C(=O)N(C)[C@@H](CCCC)C(=O)N[C@@H](CCCNC(=N)N)C(=O)N[C@H](C(=O)NCC(N)=O)CSCC(=O)N[C@@H](Cc2ccc(O)cc2)C(=O)N(C)[C@@H](C)C(=O)N[C@@H](CC(N)=O)C(=O)N2CCC[C@H]2C(=O)N[C@@H](Cc2ccccn2)C(=O)N[C@@H](CC(C)C)C(=O)N2C[C@H](O)C[C@H]2C(=O)N[C@@H](Cc2c[nH]c3ccccc23)C(=O)N[C@@H](CO)C(=O)N[C@@H](Cc2c[nH]c3ccccc23)C(=O)N1C [Example 7026] ({CH2CO}-Y[NMeA]NP[2Pal]L[Hyp]WSW[NMeNle][NMeNle]RCG-NH2; thioether N-14) | 7.52 to 8.17 | – | 7.14 to 8.32 |
